What was measured:
[1] = tested on: ischemia-reperfusion model rat; experiment: Ischemia-reperfusion test (rat), myocardial infarct size; assay type: in vivo, Male SD rats; conditions: 900 μg/kg/minute i.v. for 10 minutes, injection before ischemia, 72 hours after reperfusion
Description: Similar to the case of the hemodynamic test, male SD rats were employed. Each of the rats was anesthetized and artificially ventilated, and then thoracotomy was carried out at the thoracic sidewall. The left anterior descending coronary artery (LAD) was ligated by means of a suturing needle with suture for 30 minutes, and then blood flow was restored, to thereby prepare an ischemia-reperfusion model. A drug sample was injected through a catheter (INTRAMEDIC Polyethylene Tubing PE50, CLAY ADAMS) indwelled in the femoral vein.
In this test, an adenosine-retaining liposome group were divided into two groups: a group received adenosine-retaining liposomes before ischemia (injected for 10-minute before ischemia), and a group received adenosine-retaining liposomes before reperfusion (injected for 10-minute initiated 5 minutes before reperfusion). In the other groups, injection was carried out before ischemia (injected for 10-minute before ischemia). […]
Each of the rats was anesthetized 72 hours after reperfusion, and then thoracotomy was carried out again. […] After staining, the specimens were photographed, and an ischemic risk area (non-Evans blue-stained area) and an infarct area (non-TTC-stained area) were determined by means of Win ROOF Version 5.5 (product of Mitani Corporation). Infarct size was calculated by dividing the infarct area by the ischemic risk area.

[2] = Hemodynamic test (blood pressure and heart rate during intravenous injection); assay type: in vivo, Male SD rats; conditions: rat, i.v.
Description: Male SD rats (nine weeks old, body weight: 270 g to 320 g, supplied by Japan SLC, Inc.) were employed. Each of the rats was anesthetized with pentobarbital sodium (30 mg/kg, intraperitoneal injection) and then fixed in the dorsal position. A tube was orally inserted into the trachea, and artificial ventilation was carried out by means of a ventilator for small animals. A catheter (INTRAMEDIC Polyethylene Tubing PE50, CLAY ADAMS) was inserted into the femoral artery and the femoral vein, and systolic blood pressure, diastolic blood pressure, and mean blood pressure were measured in the femoral artery. Heart rate was measured by means of an electrocardiograph. A drug sample was injected through the catheter indwelled in the femoral vein by means of a syringe pump (Model PHD 4400, HARVARD). Specifically, after stabilization of hemodynamics, empty liposomes (n=8), adenosine only (n=8), and adenosine-retaining liposomes (n=8) were injected transvenously, respectively.
In an empty liposome group, injection was carried out at 0.05 mL/minute for 10 minutes (one minute, five minutes, and 10 minutes after initiation of injection, blood pressure and heart rate were evaluated), and, for five minutes after completion of injection, blood pressure and heart rate were evaluated. Thereafter, evaluation was carried out in a manner similar to that described above at an injection rate of 0.1 mL/minute, 0.2 mL/minute, or 0.4 mL/minute. In an adenosine-only group or an adenosine-retaining liposome group, injection was initiated at 0.05 mL/minute (225 μg/kg/minute as reduced to adenosine), and cumulative administration was carried out through the same protocol as in the case of the empty liposome group.

[3] = cited from earlier work
[4] = ten minutes after initiation of adenosine injection at 225 μg/kg/minute
[5] = ten minutes after initiation of adenosine injection at 450 μg/kg/minute
[6] = ten minutes after initiation of adenosine injection at 900 μg/kg/minute
[7] = ten minutes after initiation of adenosine injection at 1,800 μg/kg/minute

For `Nc1ncnc2c1ncn2[C@@H]1O[C@H](CO)[C@@H](O)[C@H]1O` [adenosine, Adenosine], the “myocardial infarct size (infarct area / ischemic risk area)” value [1] was 25.2±1.9%, the heart rate [2, 4] was 357±25 bpm and the mean blood pressure [2, 4] was 101±12 mmHg. It also gave a heart rate [2, 5] of 324±25 bpm, a mean blood pressure [2, 5] of 93±14 mmHg and a heart rate [2, 6] of 296±12 bpm. For the same compound, the mean blood pressure [2, 6] was 84±11 mmHg, the heart rate [2, 7] was 236±17 bpm and the mean blood pressure [2, 7] was 75±11 mmHg. For the same compound, the “half life in blood” value [3] was < 10 s.

From patent publication US9095600B2, “Prophylactic and/or therapeutic agent for cardiac infarction” (OSAKA UNIVERSITY, priority 2007, dated 2015)
